≈ marks a conversion by molar mass, not a printed value.
What was measured:
[1] = tested on: Lymphocytic leukemia P-388 tumor cells; test: Therapeutic effect upon lymphocytic leukemia P-388 tumor; assay type: in vivo, CDF1 male mice; conditions: 24 hours after transplantation
Protocol: Lymphocytic leukemia P-388 tumor cells (1×10^6 cells) were transplanted intraperitoneally into each of five CDF1 male mice weighing about 22 grams. Twenty-four hours after transplantation, 0.2 ml of a PBS (phosphate-buffered saline) solution of DC 113 was intraperitoneally administered to each mouse. For comparison, 0.2 ml of a PBS solution of mitomycin C was intraperitoneally administered to each of five mice 24 hours after transplantation. The life-prolonging effect of DC 113 thus established is shown below in Table 2 in terms of the T/C ratio [T mean number of days of survival after transplantation in the DC 113 group; C=mean number of days of survival after transplantation in the control group (intraperitoneally given 0.2 ml of PBS)].

[2] = Stability compared with DC-88A; assay type: physicochemical; conditions: relative to known compound DC-88A
[3] = Solubility; assay type: physicochemical
[4] = Acute toxicity (LD50); conditions: mouse, in vivo; intravenous, mice
[5] = tested on: Escherichia coli ATCC 26; test: Antimicrobial activity, MIC by agar dilution method (pH 7.0); assay type: cell-based; conditions: ATCC26, read-out: Minimum inhibitory concentration (MIC)
Protocol: (§1) Minimum inhibitory concentrations (MIC) against various bacteria were determined by the agar dilution method (pH 7.0).

[6] = tested on: Klebsiella pneumoniae ATCC 10031; test: as above; assay type: cell-based; conditions: ATCC10031, read-out: Minimum inhibitory concentration (MIC)
Protocol: as §1

[7] = tested on: Salmonella typhosa ATCC 9992; test: as above; assay type: cell-based; conditions: Salmonella enterica, read-out: Minimum inhibitory concentration (MIC)
Protocol: as §1

[8] = tested on: Staphylococcus aureus ATCC 6538P; test: as above; assay type: cell-based; conditions: ATCC6538P, read-out: Minimum inhibitory concentration (MIC)
Protocol: as §1

[9] = tested on: Bacillus subtilis No. 10707; test: as above; assay type: cell-based; conditions: read-out: Minimum inhibitory concentration (MIC)
Protocol: as §1

SMILES: CO[C@@]12[C@H](COC(N)=O)C3=C(C(=O)C(C)=C(N)C3=O)N1C[C@@H]1N[C@@H]12 [Mitomycin C, mitomycin C, reference compound]
- Life-prolonging effect (T/C) ([1]; 6 mg/kg i.p.): 151

SMILES: COC(=O)c1cc2c([nH]1)C(=O)C=C1N(C(=O)c3cc4cc(OC)c(OC)c(OC)c4[nH]3)CC3CC123 (stereo not drawn) [DC 113]
- Stability [2]: more stable than the known compound DC-88A
- Solubility ([3]; in chloroform, DMSO, methanol, ethyl acetate and acetone): Soluble
- Solubility ([3]; in water and n-hexane): sparingly soluble
- Life-prolonging effect (T/C) ([1]; 0.0063 mg/kg i.p.): 130
- Life-prolonging effect (T/C) ([1]; 0.013 mg/kg i.p.): 110
- LD50 [4]: 0.14 mg/kg
- MIC [5]: 0.064 µg/mL (≈ 0.134 µM)
- MIC [6]: 0.021 µg/mL (≈ 0.044 µM)
- MIC [7]: 0.1 µg/mL (≈ 0.209 µM)
- MIC [8]: 1.3 ng/mL (≈ 0.00272 µM)
- MIC [9]: 0.65 ng/mL (≈ 0.00136 µM)
